Row | SMILES | melting point
1 | O=C1c2ccccc2C(=O)N1N1C2CCCCC21 (configuration not stated) | 75 to 77 °C
2 | CCOC(=O)c1ncn2c1CN(Cc1ccc(OC)cc1OC)C(=O)c1cc(F)ccc1-2 | 159 to 160 °C
3 | N#Cc1nc(SCc2cnn(-c3c(Cl)cc(C(F)(F)F)cc3Cl)n2)n(Cc2ccccc2)c1C#N | 132 °C
4 | CCN1c2ncc(C3(c4ccccc4)CO3)cc2C(=O)N(C)c2ccc(Cl)nc21 (configuration not stated) | 105 to 107 °C
5 | COc1cccc(C(=O)Nc2ccc(N3CCN(Cc4cccc(C#N)c4)CC3)cc2)c1-c1ccc(C(C)C)cc1 | 179 °C
6 | Cc1ccc(C(NC2CCNCC2)(Oc2ccc(OCc3ccccc3)cc2)C(C)O)nc1 (configuration not stated) | 123 to 125 °C
7 | CCNc1ccc(Cl)cc1C(=O)c1ccccc1 | 57 to 58 °C
8 | CCCC/C=C\c1c([C@H](O)[C@H](CCCC)NC(=O)[C@H](CC(C)C)NC(=O)OCc2ccccc2)c1=O | 87 to 94 °C
9 | CC(C)(C)OC(=O)NCC(=O)Nc1cccc(I)c1 | 126 to 128 °C
10 | CC(C)(C)P(=O)(O)CCCN | 253 to 255 °C
11 | c1ccc2nc(C3CCCS3)ccc2c1 (configuration not stated) | 63 °C
12 | CNC(=NC#N)NCCS(=O)Cc1nsc(NC(=N)N)n1 (configuration not stated) | 185 to 186 °C
13 | C=CCNc1nc2c(c(N3CCN(C)CC3)n1)CCCN2CC=C | 81 °C
14 | COc1cncc(-c2cccc(OC3SCC(OC(C)=O)C(OC(C)=O)C3OC(C)=O)c2)c1 (configuration not stated) | 167 °C
15 | CSc1ncc(C2=NCC(C)(C)O2)cc1Cl | 113 to 115 °C
16 | CS(=O)(=O)c1ccc(C2=C(c3ccccc3)C(=O)OC23CCC3)cc1 | 159 to 160 °C

Row | SMILES | melting point
17 | CNC(=C[N+](=O)[O-])NCCSCc1csc(CN2CCCCC2)n1 | 100 to 103 °C
18 | CSC[C@H](N)C(=O)NC(C)=O | 120 to 123 °C
19 | CCCCCC(=O)C=CI | 35 to 37 °C
20 | NC(=O)CCSSCCC(N)=O | 100 to 101 °C
21 | CN(C)CCc1c(CC(C#N)(c2ccccc2)c2ccccc2)c2ccccc2n1C | 133 to 136 °C
22 | COc1ccc2c(c1)CCC1C2CCC2(C)C(NC(c3ccccc3)c3ccccc3)CCC12 (configuration not stated) | 127 to 129 °C
23 | O=C1Cc2cc(C(=O)[C@H]3CC[C@H]3C(=O)O)ccc2N1 (relative stereo) | 211 to 212 °C
24 | CCCCNCP(=O)(O)O | 236 to 240 °C
25 | Cc1ccc(S(=O)(=O)NC(=S)Nc2cnccc2N)cc1 | 185 to 187 °C
26 | N#Cc1nn(-c2c(Cl)cc(-c3c(F)c(F)nc(F)c3F)cc2Cl)c(N)c1SC(F)(F)F | 100 to 104 °C
27 | COc1ncccc1C(=O)NC1CNCCn2c1nc(-c1ccncn1)cc2=O (racemic) | 236 to 238 °C
28 | Cc1c(-c2ccccc2)[nH]c(=O)n1C1CCN(Cc2cccc(Br)c2)CC1 | 263 to 265 °C
29 | O=C(CCCc1ccc(-c2ccc(Cl)cc2)cc1)c1ccc(CN2CCCC2)cc1 | 114 to 115 °C
30 | COC[C@@H]1CN(c2ccc(OCc3ccccc3)cc2)C(=O)O1 | 101 °C
31 | CC(=NO)C(C)(C)NCC(C)CNC(C)(C)C(Cn1ccnc1[N+](=O)[O-])=NO (configuration not stated) | 167 to 168 °C
32 | C=CCOC(=O)c1c(C)c(OC)cc(O[Si](C)(C)C(C)(C)C)c1C=O | 94 to 95 °C

The next lines start with the values.

Row | melting point | SMILES
33 | 127 to 129 °C | FC(F)(F)CSc1nc2cc(Cl)ccc2[nH]1
34 | 272 to 275 °C | Nc1cc2c(Nc3ccc(Br)c(Cl)c3)ncnc2cn1
35 | 153 °C | CCOC(=O)c1c(O)c2cccnc2n(Cc2ccc(OC)cc2)c1=O
36 | 197 to 198 °C | O=S(=O)(Nc1ccc2c(OCc3csc(-c4ccc(C(F)(F)F)cn4)n3)cccc2c1)C(F)(F)F
37 | 226 to 229 °C | O=C(NS(=O)(=O)c1ccc(Cl)cc1)C1=NN(c2ccc(Cl)cc2)C(c2ccccc2)C1 (configuration not stated)
38 | > 240 °C | COc1ccccc1CN[C@H]1CCCN[C@H]1c1cc(Br)cc(Br)c1 (relative stereo)
39 | 133 to 135 °C | Cc1cc(Cl)ccc1-c1c(O)c(C)c(-c2ccccn2)oc1=O
40 | 164 to 165 °C | CC(C)c1nc(-c2ccccc2)c(F)c(-c2ccc(F)cc2)c1CO
41 | 105 to 108 °C | COC(=O)CCc1cc2cc(Cl)ccc2n1S(=O)(=O)c1cccc(C)c1
42 | 138 to 140 °C | OCc1cccc2c(Cl)c3ccccc3cc12
43 | 289 to 290 °C | COC(=O)C1=C(C)Nc2nc[nH]c(=O)c2C1c1cccc([N+](=O)[O-])c1 (configuration not stated)
44 | 151 to 153 °C | CC1(C)CCCN(CCNc2ccnc3cc(Cl)ccc23)C1
45 | 144 to 145 °C | CC1(C)OC(=O)C(Oc2ccc(Cl)c(Cl)c2)=C1c1ccc(S(C)(=O)=O)cc1
46 | 100 to 101 °C | Cc1cc(C(=N)NO)cc(C)c1OCCCc1ccco1
47 | 224 to 226 °C | O=C(NCCn1c2ccccc2c(=O)c2ccccc21)OCc1ccccc1
48 | 104 to 106 °C | CCCCCC(=O)c1c(CN(CC)CC)nc2cc(OC)c(OC)cc2c1-c1ccc(OC)c(OC)c1
49 | 204 to 206 °C | COc1ccc(Cn2c(=S)[nH]c(=S)c3[nH]c(C(C)C)nc32)cc1OC1CCCC1
50 | 47 to 49 °C | CN(C)CCCOc1cc(F)c(-c2c(Cl)nc(-n3ccnc3)nc2NCC(F)(F)F)c(F)c1
51 | 67 to 71 °C | O=C(Cc1ccc2ccccc2c1OCC1CO1)NCCO[N+](=O)[O-] (configuration not stated)
52 | 41 °C | S=c1c(Br)coc2ccccc12

Row | melting point | SMILES
53 | 240 °C | CC(=O)Oc1ccc(-c2cnc(-c3ccccc3)[nH]c2=O)cc1OC(C)=O
54 | 175 to 178 °C | COc1cc(OC)cc(-c2ncn(C)c2-c2ccc3c(c2)NCCO3)c1
55 | 155 to 156 °C | Brc1cccc(-c2cc(-c3cccc(Br)c3)on2)c1
56 | 40 to 45 °C | O=C(Cl)N1CC(Oc2cc(C(F)(F)F)ccc2Cl)C1
57 | 90 to 91 °C | Oc1ccc(C=C(Cl)Cl)cc1
58 | 124 °C | O=[N+]([O-])c1cc(CO)c(CO)cc1Oc1ccc(F)cc1F
59 | 285 to 289 °C | CCn1cc(C(=O)O)c(=O)c2cc(F)c(-c3ccnc(CN)n3)c(F)c21
60 | 195 to 198 °C | CCOc1cc(C#N)ccc1C(=O)Nc1cc(Cl)c(Cl)cc1N
61 | 91 to 93 °C | COC(=O)COc1ccc(OC)cc1NC(=O)c1ccc(OCCCCc2ccccc2)cc1
62 | 185 to 186 °C | O=S(=O)(c1cccs1)N(c1cccc2cc(C3=NCC(CN4CCOCC4)S3)[nH]c12)C(F)F (configuration not stated)
63 | 64 to 67 °C | NCc1cc(-c2ccnc(Nc3cccc(OC(F)(F)C(F)F)c3)n2)ccn1
64 | 173 to 176 °C | CCc1ccc(-c2ccc3c(c2)C=C(C(=O)OC)CCS3(=O)=O)cc1
65 | 282 to 284 °C | COc1cc2nc(N)nc(-c3cc(Br)c(C)cc3Br)c2cc1OC
66 | 175 to 177 °C | CSc1nc(N)n(C(=O)c2ccc(Cl)cc2)n1
67 | 225 to 226 °C | Cn1c(COc2ccc(CC3SC(=O)NC3=O)cc2)nc2ccc(Oc3ccc(NS(C)(=O)=O)cc3)cc21 (configuration not stated)
68 | 216 to 218 °C | N#CC(=Cc1ccc([N+](=O)[O-])cc1)c1ccc([N+](=O)[O-])cc1
69 | 240 to 245 °C | O=c1ccc(S(=O)(=O)c2cc3cc(Cl)cc(Cl)c3o2)n[nH]1
70 | 125 to 127 °C | CSC(Cc1ccc2oc(Cc3nc(-c4cccc(C)c4)oc3C)cc2c1)C(=O)O (configuration not stated)
71 | 147 to 148 °C | BrCc1cc2ccccc2cc1CBr
72 | 176 to 177 °C | O=C(CS(=O)Cc1ccc(F)cc1)NO (configuration not stated)

Reference: a melting point compilation (Tetko et al.; mined from patent text by program, amines drawn as free bases though some values may be those of a salt)
